Numbered stars: 1 amine (or outer) side, 2 acyl side, 3 side chain; on linkers, the order of the positions; unused ones are H or OH. Bridge positions count the residues as written; N and C are the ends. Square brackets hold non-standard residues; d marks the D form. Side chains are listed from the residue outwards. Peptide text beside a SMILES is read from it. * marks the point of attachment. ξ: configuration not given here. X9 = O=C(O)CN1CCN(CC(=O)O)CCN(CC(=O)NCCCOCCOCCOCCCN*)CCN(CC(=O)O)CC1; DOTA = O=C(O)CN1CCN(CC(=O)O)CCN(CC(=O)*)CCN(CC(=O)O)CC1; X3 = CC[C@H](c1c[nH]c2ccccc12)[C@H](N[*:1])C(=O)[*:2]; Trp(7-Cl) = N[C@@H](Cc1c[nH]c2c(Cl)cccc12)C(=O)O; γGlu = O=C(O)[C@H](CCC(=O)[*:2])N[*:1]; 2Nal = N[C@@H](Cc1ccc2ccccc2c1)C(=O)O; Suc = O=C(CCC(=O)[*:2])[*:1]; NMeA = CN[C@@H](C)C(=O)O; Aze = O=C(O)[C@@H]1CCN1; Abu = CC[C@H](N)C(=O)O; ξD = NC(CC(=O)O)C(=O)O; Sar = CNCC(=O)O
What follows are molecules tested against T1, human DLL3 (Homo sapiens, UniProt Q9NYJ7) (assay: Affinity determination by Surface Plasmon Resonance (SPR)). Conditions: 25° C., biotinylated human DLL3 immobilized on streptavidin sensor chip, 1:1 binding model; read-out: SPR KD.
T1 sequence (Q9NYJ7 27-618): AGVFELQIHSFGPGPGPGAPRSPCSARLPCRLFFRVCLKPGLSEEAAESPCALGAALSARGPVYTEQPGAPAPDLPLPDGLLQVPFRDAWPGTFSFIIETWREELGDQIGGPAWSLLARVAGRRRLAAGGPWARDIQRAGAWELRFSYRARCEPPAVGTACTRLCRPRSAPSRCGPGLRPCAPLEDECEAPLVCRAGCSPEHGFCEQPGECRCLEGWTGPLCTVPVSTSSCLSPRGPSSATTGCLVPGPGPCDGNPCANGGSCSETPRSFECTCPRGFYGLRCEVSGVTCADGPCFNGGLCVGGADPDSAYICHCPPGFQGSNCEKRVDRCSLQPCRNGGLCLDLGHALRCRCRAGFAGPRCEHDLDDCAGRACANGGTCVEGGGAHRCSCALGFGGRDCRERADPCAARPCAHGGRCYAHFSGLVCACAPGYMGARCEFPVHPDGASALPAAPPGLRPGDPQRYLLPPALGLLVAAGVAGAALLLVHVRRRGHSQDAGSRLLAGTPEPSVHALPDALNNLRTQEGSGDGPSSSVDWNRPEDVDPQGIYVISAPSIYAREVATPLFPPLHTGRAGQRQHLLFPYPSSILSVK
Type: binding
Method in brief: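 Kinetic and affinity constants were derived by fitting sensorgrams to a 1:1 binding model. Graded compound concentrations flowed at 100 μL/minute in 20 mM phosphate running buffer with 2% DMSO over streptavidin-immobilized biotinylated human DLL3, reference-subtracted.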

SMILES	Kd
CC[C@H](C)[C@H](NC(=O)[C@@H](NC(=O)[C@H](Cc1c[nH]c2ccccc12)NC(C)=O)[C@@H](C)O)C(=O)N[C@H]1CSSC[C@@H](C(=O)N[C@@H](Cc2c[nH]c3ccccc23)C(=O)N2CCC[C@H]2C(=O)N[C@H](CCCCNC(=O)CN2CCN(CC(=O)O)CCN(CC(=O)O)CCN(CC(=O)O)CC2)C(N)=O)NC(=O)[C@H](CC(=O)O)NC(=O)[C@H](Cc2cnc[nH]2)NC(=O)[C@H](Cc2ccc3ccccc3c2)NC(=O)[C@H](CC(=O)O)NC(=O)[C@H](CC(N)=O)NC1=O [compound 209, Ac-W-T-I-C(3)-N-(Asp)-(2Nal)-H-D-C(3)-W-P-[D-Lys(DOTA)]-NH2] (Ac-WTICND[2Nal]HDCWP[dK](DOTA)-NH2; disulfide 4-10)	< 1 nM
CC[C@H](C)[C@H](NC(=O)[C@@H](NC(=O)[C@H](Cc1c[nH]c2c(Cl)cccc12)NC(C)=O)[C@@H](C)O)C(=O)N[C@H]1CSSC[C@@H](C(=O)N[C@@H](Cc2c[nH]c3ccccc23)C(=O)N2CCC[C@H]2C(=O)N[C@H](CCCCNC(=O)CN2CCN(CC(=O)O)CCN(CC(=O)O)CCN(CC(=O)O)CC2)C(N)=O)NC(=O)[C@H](CC(=O)O)NC(=O)[C@H](Cc2cnc[nH]2)NC(=O)[C@H](Cc2c[nH]c3ccccc23)NC(=O)[C@H](CC(N)=O)NC(=O)[C@H](CC(N)=O)NC1=O [compound 226, Ac-(7-CI-W)-T-I-C(3)-N-N-W-H-D-C(3)-W-P-[D-Lys(DOTA)]-NH2] (Ac-[Trp(7-Cl)]TICNNWHDCWP[dK](DOTA)-NH2; disulfide 4-10)	1 to 10 nM
CC[C@H](C)[C@H](NC(=O)[C@@H](NC(=O)[C@H](Cc1c[nH]c2ccccc12)NC(C)=O)[C@@H](C)O)C(=O)N[C@H]1CSSC[C@@H](C(=O)N[C@@H](Cc2c[nH]c3ccccc23)C(=O)N2CC[C@H]2C(=O)N[C@H](CCCCNC(=O)CN2CCN(CC(=O)O)CCN(CC(=O)O)CCN(CC(=O)O)CC2)C(N)=O)NC(=O)[C@H](CC(=O)O)NC(=O)[C@H](Cc2cnc[nH]2)NC(=O)[C@H](Cc2c[nH]c3ccccc23)NC(=O)[C@H](CC(N)=O)NC(=O)[C@H](CC(N)=O)NC1=O [compound 228, Ac-W-T-I-C(3)-N-N-W-H-D-C(3)-W-Aze-[D-Lys(DOTA)]-NH2] (Ac-WTICNNWHDCW[Aze][dK](DOTA)-NH2; disulfide 4-10)	1 to 10 nM
CC[C@H](C)[C@H](NC(=O)[C@@H](NC(=O)[C@H](Cc1c[nH]c2ccccc12)NC(C)=O)[C@@H](C)O)C(=O)N[C@H]1CSSC[C@@H](C(=O)N[C@@H](Cc2c[nH]c3ccccc23)C(=O)N2CCC[C@H]2C(=O)N[C@H](CCCCNC(=O)CNC(=O)CNC(=O)CCC(=O)NCCCOCCOCCOCCCNC(=O)CN2CCN(CC(=O)O)CCN(CC(=O)O)CCN(CC(=O)O)CC2)C(N)=O)NC(=O)[C@H](CC(=O)O)NC(=O)[C@H](Cc2cnc[nH]2)NC(=O)[C@H](Cc2ccc3ccccc3c2)NC(=O)[C@H](CC(N)=O)NC(=O)[C@H](CC(N)=O)NC1=O [compound 230, Ac-W-T-I-C(3)-N-N-(2Nal)-H-D-C(3)-W-P-[D-Lys(G-G-TTDS-DOTA)]-NH2] (Ac-WTICNN[2Nal]HDCWP[dK]([Gly-Gly-Suc-X9])-NH2; disulfide 4-10)	< 1 nM
CC[C@H](C)[C@H](NC(=O)[C@@H](NC(=O)[C@H](Cc1c[nH]c2ccccc12)NC(C)=O)[C@@H](C)O)C(=O)N[C@H]1CSSC[C@@H](C(=O)N[C@@H](Cc2c[nH]c3ccccc23)C(=O)N2CCC[C@H]2C(=O)NCC(=O)N[C@@H](CO)C(=O)NCC(=O)N[C@@H](CO)C(=O)NCC(=O)N[C@@H](CO)C(=O)N[C@H](CCCCNC(=O)CN2CCN(CC(=O)O)CCN(CC(=O)O)CCN(CC(=O)O)CC2)C(N)=O)NC(=O)C(CC(=O)O)NC(=O)[C@H](Cc2cnc[nH]2)NC(=O)[C@H](Cc2ccc3ccccc3c2)NC(=O)[C@H](CC(N)=O)NC(=O)[C@H](CC(N)=O)NC1=O (stereo partly drawn) [compound 232, Ac-W-T-I-C(3)-N-N-(2Nal)-H-D-C(3)-W-P-G-S-G-S-G-S-[D-Lys(DOTA)]-NH2] (Ac-WTICNN[2Nal]H[ξD]CWPGSGSGS[dK](DOTA)-NH2; disulfide 4-10)	< 1 nM
CC[C@H](C)[C@H](NC(=O)[C@@H](NC(=O)[C@H](Cc1c[nH]c2ccccc12)NC(C)=O)[C@@H](C)O)C(=O)N[C@H]1CSSC[C@@H](C(=O)N[C@@H](Cc2c[nH]c3ccccc23)C(=O)N2CCC[C@H]2C(=O)N[C@@H](CCC(=O)N[C@H](CCCCNC(=O)CN2CCN(CC(=O)O)CCN(CC(=O)O)CCN(CC(=O)O)CC2)C(N)=O)C(=O)O)NC(=O)[C@H](CC(=O)O)NC(=O)[C@H](Cc2cnc[nH]2)NC(=O)[C@H](Cc2ccc3ccccc3c2)NC(=O)[C@H](CC(N)=O)NC(=O)[C@H](CC(N)=O)NC1=O [compound 233, Ac-W-T-I-C(3)-N-N-(2Nal)-H-D-C(3)-W-P-gE-[D-Lys(DOTA)]-NH2] (Ac-WTICNN[2Nal]HDCWP[γGlu][dK](DOTA)-NH2; disulfide 4-10)	< 1 nM

The next lines start with the values.

Kd	SMILES
< 1 nM	CC[C@H](C)[C@H](NC(=O)[C@@H](NC(=O)[C@H](Cc1c[nH]c2ccccc12)NC(C)=O)[C@@H](C)O)C(=O)N[C@H]1CSSC[C@@H](C(=O)N[C@@H](Cc2c[nH]c3ccccc23)C(=O)N2CCC[C@H]2C(=O)N[C@H](CCCCNC(=O)CN2CCN(CC(=O)O)CCN(CC(=O)O)CCN(CC(=O)O)CC2)C(N)=O)NC(=O)[C@H](CC(=O)O)NC(=O)[C@H](Cc2cnc[nH]2)NC(=O)[C@H](Cc2ccc3ccccc3c2)NC(=O)[C@H](CCCCN)NC(=O)[C@H](CC(N)=O)NC1=O [compound 213, Ac-W-T-I-C(3)-N-(Lys)-(2Nal)-H-D-C(3)-W-P-[D-Lys(DOTA)]-NH2] (Ac-WTICNK[2Nal]HDCWP[dK](DOTA)-NH2; disulfide 4-10)
1 to 10 nM	CC[C@H](C)[C@H](NC(=O)[C@@H](NC(=O)[C@H](Cc1c[nH]c2ccccc12)NC(C)=O)[C@@H](C)O)C(=O)N[C@H]1CSSC[C@@H](C(=O)N[C@@H](Cc2c[nH]c3ccccc23)C(=O)N(C)CC(=O)N[C@H](CCCCNC(=O)CN2CCN(CC(=O)O)CCN(CC(=O)O)CCN(CC(=O)O)CC2)C(N)=O)NC(=O)[C@H](CC(=O)O)NC(=O)[C@H](Cc2cnc[nH]2)NC(=O)[C@H](Cc2c[nH]c3ccccc23)NC(=O)[C@H](CC(N)=O)NC(=O)[C@H](CC(N)=O)NC1=O [compound 227, Ac-W-T-I-C(3)-N-N-W-H-D-C(3)-W-Sar-[D-Lys(DOTA)]-NH2] (Ac-WTICNNWHDCW[Sar][dK](DOTA)-NH2; disulfide 4-10)
10 to 100 nM	CC[C@H](C)[C@H](NC(=O)[C@@H](NC(=O)[C@H](Cc1c[nH]c2ccccc12)NC(C)=O)[C@@H](C)O)C(=O)N[C@H]1CSSC[C@@H](C(=O)N[C@@H](Cc2c[nH]c3ccccc23)C(=O)N(C)[C@@H](C)C(=O)N[C@@H](CCCCNC(=O)CN2CCN(CC(=O)O)CCN(CC(=O)O)CCN(CC(=O)O)CC2)C(N)=O)NC(=O)[C@H](CC(=O)O)NC(=O)[C@H](Cc2c[nH]cn2)NC(=O)[C@H](Cc2c[nH]c3ccccc23)NC(=O)[C@H](CC(N)=O)NC(=O)[C@H](CC(N)=O)NC1=O [compound 229, Ac-W-T-I-C(3)-N-N-W-H-D-C(3)-W-NmeA-[D-Lys(DOTA)]-NH2] (Ac-WTICNNWHDCW[NMeA]K(DOTA)-NH2; disulfide 4-10)
< 1 nM	CC[C@H](C)[C@H](NC(=O)[C@@H](NC(=O)[C@H](Cc1c[nH]c2ccccc12)NC(C)=O)[C@@H](C)O)C(=O)N[C@H]1CSSC[C@@H](C(=O)N[C@@H](Cc2c[nH]c3ccccc23)C(=O)N2CCC[C@H]2C(=O)NCC(=O)NCC(=O)N[C@@H](CO)C(=O)NCC(=O)NCC(=O)N[C@@H](CO)C(=O)N[C@H](CCCCNC(=O)CN2CCN(CC(=O)O)CCN(CC(=O)O)CCN(CC(=O)O)CC2)C(N)=O)NC(=O)[C@H](CC(=O)O)NC(=O)[C@H](Cc2cnc[nH]2)NC(=O)[C@H](Cc2ccc3ccccc3c2)NC(=O)[C@H](CC(N)=O)NC(=O)[C@H](CC(N)=O)NC1=O [compound 231, Ac-W-T-I-C(3)-N-N-(2Nal)-H-D-C(3)-W-P-G-G-S-G-G-S-[D-Lys(DOTA)]-NH2] (Ac-WTICNN[2Nal]HDCWPGGSGGS[dK](DOTA)-NH2; disulfide 4-10)
< 1 nM	CC[C@H](NC(C)=O)C(=O)N[C@H](C(=O)N[C@H](C(=O)N[C@H]1CSSC[C@@H](C(=O)N[C@@H](Cc2c[nH]c3ccccc23)C(=O)N2CCC[C@H]2C(=O)N[C@@H](CCC(=O)N[C@@H](CCC(=O)N[C@@H](CCC(=O)N[C@H](CCCCNC(=O)CN2CCN(CC(=O)O)CCN(CC(=O)O)CCN(CC(=O)O)CC2)C(N)=O)C(=O)O)C(=O)O)C(=O)O)NC(=O)[C@H](CC(=O)O)NC(=O)[C@H](Cc2cnc[nH]2)NC(=O)[C@H](Cc2ccc3ccccc3c2)NC(=O)[C@H](CC(N)=O)NC(=O)[C@H](CC(N)=O)NC1=O)[C@H](CC)c1c[nH]c2ccccc12)[C@@H](C)O [compound 234, Ac-W-T-I-C(3)-N-N-(2Nal)-H-D-C(3)-W-P-gE-gE-gE-[D-Lys(DOTA)]-NH2] (Ac-[Abu]T[X3]CNN[2Nal]HDCWP[γGlu][γGlu][γGlu][dK](DOTA)-NH2; disulfide 4-10)
